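Method: 48-hour compound exposure of cells in 96-well plates, five concentrations, linear interpolation of endpoints. The concentration for 50% growth inhibition is given as GI50.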 Calls of active or inactive are those of the source. Rule as the data show it: active = GI50 up to about 1.1 µM and inactive = higher.
How the values were obtained:
Experiment in all cases: NCI anticancer screen, dose series, 48 h
MDA-N = test system: MDA-N
HOP-92 = test system: HOP-92
A549 = test system: A549
A498 = test system: A498
RXF 393 = test system: RXF 393
NCI-H522 = test system: NCI-H522
OVCAR-3 = test system: OVCAR-3
MCF7 = test system: MCF7
NCI-H23 = test system: NCI-H23
T47D = test system: T47D
SNB-19 = test system: SNB-19
TK-10 = test system: TK-10
SR = test system: SR
OVCAR-4 = test system: OVCAR-4
UACC-257 = test system: UACC-257
CAKI-1 = test system: CAKI-1
U-251 = test system: U-251
SF-539 = test system: SF-539
HCT-116 = test system: HCT-116
PC-3 = test system: PC-3

SMILES	GI50 (MDA-N)	GI50 (HOP-92)	GI50 (A549)	GI50 (A498)	GI50 (RXF 393)	GI50 (NCI-H522)	GI50 (OVCAR-3)	GI50 (MCF7)	GI50 (NCI-H23)	GI50 (T47D)	GI50 (SNB-19)	GI50 (TK-10)	GI50 (SR)	GI50 (OVCAR-4)	GI50 (UACC-257)	GI50 (CAKI-1)	GI50 (U-251)	GI50 (SF-539)	GI50 (HCT-116)	GI50 (PC-3)
COc1ccc2c(CCNS(=O)(=O)c3ccccc3)c(C(C)=O)[nH]c2c1	> 71.3 µM (inactive)	> 100 µM (inactive)	54.3 µM (inactive)	> 62.7 µM (inactive)	> 100 µM (inactive)	20.5 µM (inactive)	> 100 µM (inactive)	51.4 µM (inactive)	8.3 µM (inactive)	> 52.2 µM (inactive)	66.7 µM (inactive)	> 100 µM (inactive)	64.6 µM (inactive)	51.6 µM (inactive)	> 32.4 µM (inactive)	1 µM (active)	> 74.3 µM (inactive)	82.4 µM (inactive)	45.3 µM (inactive)	> 71.9 µM (inactive)
Nc1ccc2nc3ccc(N)cc3[n+](-c3ccccc3)c2c1	49.8 µM (inactive)	67 µM (inactive)	45.4 µM (inactive)	> 100 µM (inactive)	> 100 µM (inactive)	11.6 µM (inactive)	6.4 µM (inactive)	5.07 µM (inactive)	22.8 µM (inactive)	7.78 µM (inactive)	40.4 µM (inactive)	> 100 µM (inactive)	98.6 µM (inactive)	> 100 µM (inactive)	9.27 µM (inactive)	> 100 µM (inactive)	38.5 µM (inactive)	60.7 µM (inactive)	26.4 µM (inactive)	29.3 µM (inactive)
COc1cc2cc(C(=O)N3CC(CCl)c4c3cc(NC(=O)C(C)(C)c3ccccc3[N+](=O)[O-])c3ccccc43)[nH]c2c(OC)c1OC (stereo not given)	5.12 µM (inactive)	2.38 µM (inactive)	0.675 µM (active)	0.78 µM (active)	1.42 µM (inactive)	1.99 µM (inactive)	82 µM (inactive)	0.142 µM (active)	0.524 µM (active)	4.73 µM (inactive)	4.36 µM (inactive)	8.87 µM (inactive)	0.192 µM (active)	3.08 µM (inactive)	6.65 µM (inactive)	0.0687 µM (active)	0.54 µM (active)	4.78 µM (inactive)	0.393 µM (active)	1.16 µM (inactive)
COC1=CC(=O)c2c(c(-c3nc(C)cs3)cn2C)C1=O	0.931 µM (active)	14.9 µM (inactive)	3.32 µM (inactive)	5.82 µM (inactive)	20.4 µM (inactive)	1.06 µM (active)	1.75 µM (inactive)	2.62 µM (inactive)	2.25 µM (inactive)	20.1 µM (inactive)	4.23 µM (inactive)	10.8 µM (inactive)	4.95 µM (inactive)	18.5 µM (inactive)	1.82 µM (inactive)	5.97 µM (inactive)	4.67 µM (inactive)	2.2 µM (inactive)	2.99 µM (inactive)	5.96 µM (inactive)
CN(C)CC1(Cc2ccccc2)CCC(Cc2ccccc2)C1=O (stereo not given)	11 µM (inactive)	17.4 µM (inactive)	17.3 µM (inactive)	15.5 µM (inactive)	13.9 µM (inactive)	2.84 µM (inactive)	6.95 µM (inactive)	5.15 µM (inactive)	18.1 µM (inactive)	8.61 µM (inactive)	16 µM (inactive)	13.4 µM (inactive)	4.47 µM (inactive)	16.3 µM (inactive)	14.9 µM (inactive)	13.3 µM (inactive)	17.5 µM (inactive)	18.1 µM (inactive)	11.1 µM (inactive)	10.1 µM (inactive)
O=c1ccn(C2OC(CO)C(P(=O)(O)O)C2O)c(=O)[nH]1 (stereo not given)	> 100 µM (inactive)	> 100 µM (inactive)	> 100 µM (inactive)	> 100 µM (inactive)	> 100 µM (inactive)	> 100 µM (inactive)	> 100 µM (inactive)	> 100 µM (inactive)	> 100 µM (inactive)	> 100 µM (inactive)	> 100 µM (inactive)	> 100 µM (inactive)	> 100 µM (inactive)	> 100 µM (inactive)	> 100 µM (inactive)	> 100 µM (inactive)	> 100 µM (inactive)	> 100 µM (inactive)	> 100 µM (inactive)	> 100 µM (inactive)
Cc1cnc2nc(-c3ccc(F)cc3)cc(O)c2c1	2.72 µM (inactive)	33.2 µM (inactive)	42.4 µM (inactive)	25.4 µM (inactive)	31.3 µM (inactive)	13 µM (inactive)	27.5 µM (inactive)	47.5 µM (inactive)	41.3 µM (inactive)	39.2 µM (inactive)	35.4 µM (inactive)	48 µM (inactive)	5.14 µM (inactive)	48.6 µM (inactive)	> 75.2 µM (inactive)	50.9 µM (inactive)	23.1 µM (inactive)	26.6 µM (inactive)	18.7 µM (inactive)	28.6 µM (inactive)
O=[N+]([O-])c1ccc(Cl)c(/C=N/C23CC4CC(CC(C4)C2)C3)c1	> 8.13 µM (inactive)	> 10 µM (inactive)	> 10 µM (inactive)	> 10 µM (inactive)	> 10 µM (inactive)	> 10 µM (inactive)	> 9.48 µM (inactive)	3.08 µM (inactive)	> 10 µM (inactive)	> 10 µM (inactive)	> 10 µM (inactive)	> 10 µM (inactive)	4.1 µM (inactive)	> 10 µM (inactive)	> 10 µM (inactive)	> 10 µM (inactive)	> 7.48 µM (inactive)	5.33 µM (inactive)	1.2 µM (inactive)	> 10 µM (inactive)
COc1ccc2nc3ccc(OC)cc3c(SCCCl)c2c1	> 50.6 µM (inactive)	21.6 µM (inactive)	39.2 µM (inactive)	31.1 µM (inactive)	> 20.6 µM (inactive)	3.03 µM (inactive)	18.2 µM (inactive)	2 µM (inactive)	16 µM (inactive)	15.2 µM (inactive)	32.4 µM (inactive)	> 81.5 µM (inactive)	4.8 µM (inactive)	12.7 µM (inactive)	> 46.1 µM (inactive)	3.82 µM (inactive)	18 µM (inactive)	7.21 µM (inactive)	6.22 µM (inactive)	22.6 µM (inactive)
CC1=NN(C(=O)c2ccccc2O)C(=O)/C1=C/c1ccccc1O	0.114 µM (active)	1.27 µM (inactive)	0.157 µM (active)	0.0327 µM (active)	0.0986 µM (active)	0.497 µM (active)	0.215 µM (active)	2.68 µM (inactive)	0.404 µM (active)	0.225 µM (active)	0.124 µM (active)	15.2 µM (inactive)	0.251 µM (active)	1.08 µM (active)	2.31 µM (inactive)	1.53 µM (inactive)	0.114 µM (active)	0.132 µM (active)	0.107 µM (active)	1.35 µM (inactive)
Nc1nc(N)c2nc(CNc3ccc(C(=O)O)cc3)[nH]c2n1	> 100 µM (inactive)	> 100 µM (inactive)	> 100 µM (inactive)	> 100 µM (inactive)	> 100 µM (inactive)	> 100 µM (inactive)	> 100 µM (inactive)	> 100 µM (inactive)	> 100 µM (inactive)	> 100 µM (inactive)	> 100 µM (inactive)	> 100 µM (inactive)	> 100 µM (inactive)	> 100 µM (inactive)	> 100 µM (inactive)	> 100 µM (inactive)	> 100 µM (inactive)	> 100 µM (inactive)	> 100 µM (inactive)	> 100 µM (inactive)
CC(C)(C)c1ccc(CN2CCN(C(c3ccccc3)c3ccc(Cl)cc3)CC2)cc1 (stereo not given)	49.4 µM (inactive)	> 100 µM (inactive)	32.5 µM (inactive)	> 100 µM (inactive)	24.4 µM (inactive)	23.4 µM (inactive)	58.7 µM (inactive)	40.6 µM (inactive)	83.6 µM (inactive)	24.2 µM (inactive)	> 100 µM (inactive)	> 100 µM (inactive)	62.2 µM (inactive)	> 100 µM (inactive)	35.9 µM (inactive)	> 100 µM (inactive)	45.1 µM (inactive)	30.3 µM (inactive)	25.7 µM (inactive)	57.3 µM (inactive)
COc1cc(C(=O)OC2CC34CCNC35CC(OC5(OC)C2O)c2cc3c(cc24)OCO3)ccc1O (stereo not given)	> 100 µM (inactive)	> 100 µM (inactive)	> 100 µM (inactive)	> 100 µM (inactive)	> 100 µM (inactive)	> 100 µM (inactive)	> 100 µM (inactive)	> 100 µM (inactive)	> 100 µM (inactive)	> 100 µM (inactive)	> 100 µM (inactive)	> 100 µM (inactive)	> 100 µM (inactive)	> 100 µM (inactive)	> 100 µM (inactive)	> 100 µM (inactive)	> 100 µM (inactive)	> 100 µM (inactive)	> 100 µM (inactive)	> 100 µM (inactive)

Source: ChEMBL document CHEMBL1201862, “PubChem BioAssay data set” (2004)
